These results are taken from US20210198277A1, “AMINE-SUBSTITUTED ARYL OR HETEROARYL COMPOUNDS” (Epizyme, Inc., priority 2016, published 2021).

SMILES strings stand for the structures.

The target in this test is T1, EHMT1 (Homo sapiens, UniProt Q9H9B1).
T1 sequence (Q9H9B1 1-1298): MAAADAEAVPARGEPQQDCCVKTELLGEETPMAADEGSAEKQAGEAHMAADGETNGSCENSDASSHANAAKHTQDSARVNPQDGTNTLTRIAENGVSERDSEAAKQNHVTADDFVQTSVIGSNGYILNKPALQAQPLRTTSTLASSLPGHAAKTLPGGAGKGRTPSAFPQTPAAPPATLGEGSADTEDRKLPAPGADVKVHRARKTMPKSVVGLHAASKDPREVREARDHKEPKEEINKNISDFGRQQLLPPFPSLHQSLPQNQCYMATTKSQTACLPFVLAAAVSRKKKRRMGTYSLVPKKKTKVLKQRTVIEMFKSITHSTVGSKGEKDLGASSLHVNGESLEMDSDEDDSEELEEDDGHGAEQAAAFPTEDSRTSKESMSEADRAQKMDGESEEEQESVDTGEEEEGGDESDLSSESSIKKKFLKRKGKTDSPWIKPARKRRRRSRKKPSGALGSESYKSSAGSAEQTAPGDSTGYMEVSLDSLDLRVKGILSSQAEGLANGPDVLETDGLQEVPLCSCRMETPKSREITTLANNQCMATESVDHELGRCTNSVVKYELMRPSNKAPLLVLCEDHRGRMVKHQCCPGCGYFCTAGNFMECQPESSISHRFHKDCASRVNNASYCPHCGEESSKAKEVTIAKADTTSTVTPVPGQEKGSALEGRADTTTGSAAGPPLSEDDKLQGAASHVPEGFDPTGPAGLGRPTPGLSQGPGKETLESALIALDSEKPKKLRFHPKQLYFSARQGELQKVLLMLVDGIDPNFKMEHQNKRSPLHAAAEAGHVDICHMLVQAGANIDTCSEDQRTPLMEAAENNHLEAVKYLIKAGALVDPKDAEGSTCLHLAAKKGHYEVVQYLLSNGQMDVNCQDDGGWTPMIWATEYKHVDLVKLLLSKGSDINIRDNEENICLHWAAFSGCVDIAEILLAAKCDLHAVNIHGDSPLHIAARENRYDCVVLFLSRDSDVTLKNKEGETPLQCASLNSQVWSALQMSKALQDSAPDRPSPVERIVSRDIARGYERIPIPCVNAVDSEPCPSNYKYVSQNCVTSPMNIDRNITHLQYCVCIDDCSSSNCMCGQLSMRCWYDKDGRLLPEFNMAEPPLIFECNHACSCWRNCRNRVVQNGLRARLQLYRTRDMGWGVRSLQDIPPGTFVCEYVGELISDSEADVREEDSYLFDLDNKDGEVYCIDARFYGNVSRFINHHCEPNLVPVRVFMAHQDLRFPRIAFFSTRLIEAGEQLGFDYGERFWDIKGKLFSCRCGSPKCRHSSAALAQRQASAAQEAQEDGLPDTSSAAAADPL
Nature of the test: EHMT1 enzyme assay on peptide substrate (EHMT1 PEP). The format is biochemical. The following applies: Table VI; read-out: EHMT1 PEP IC50.

As for `CNc1cc(C)nc(Nc2ccc(OC)c(OCC(O)CN3CCCC3)c2)n1` (stereo in doubt) [Compound 906, (2S)-1-(2-methoxy-5-[[4-methyl-6-(methylamino)pyrimidin-2-yl]amino]phenoxy)-3-(pyrrolidin-1-yl)propan-2-ol], the IC50 is less than 100 nM. In the case of `COc1cnc(Nc2cccc3[nH]nnc23)cc1OCCCN1CCCC1` [Compound 619], the IC50 was greater than 10000 nM. Consider `CCN1CC(COc2cc(Nc3cccn4cnnc34)ncc2OC)C1` [Compound 620], for which the concentration for half-maximal inhibition (IC50) was greater than 10000 nM. The same measure for `CNc1cc(C)nc(Nc2c[nH]c(=O)c(OCCCN3CCCC3)c2)n1` [Compound 621]: 1000 to 10000 nM. For the compound `CNc1cc(C)nc(Nc2cc(OCCCN3CCCC3)c3nncn3c2)n1` [Compound 622], the IC50 was in the range of 1000 to 10000 nM. Take `CNc1cc(C)nc(Nc2cc(OCCCN3CCCC3)c3ncnn3c2)n1` [Compound 623]: the IC50 lay within 1000 to 10000 nM.

Take `CNc1cc(C)nc(Nc2cc(OCCCN3CCCC3)c3[nH]nnc3c2)n1` [Compound 624]: the half-maximal inhibitory concentration (IC50) was less than 100 nM. Regarding `COc1cc2c(C3CCN(C)CC3)cc(N3CCCC3)nc2cc1OCCCN1CCCC1` [Compound 625], the IC50 was less than 100 nM.

With `COc1cc2c(C3CCN([C@H]4CCOC4)CC3)cc(C)nc2cc1OCCCN1CCCC1` [Compound 864], the IC50 was less than 100 nM. With `CCNc1cc(C2CCOCC2)c2cc(OC)c(OCCCN3CCCC3)cc2n1` [Compound 865], the half-maximal inhibitory concentration (IC50) was less than 100 nM. The same measure for `CNc1cc(C2CCN([C@@H]3CCOC3)CC2)c2cc(OC)c(OCCCN3CCCC3)cc2n1` [Compound 866]: less than 100 nM.

Take `CNc1cc(C2CCN([C@H]3CCOC3)CC2)c2cc(OC)c(OCCCN3CCCC3)cc2n1` [Compound 867]: the IC50 is less than 100 nM. For the compound `COc1ccc(Nc2nc(C)cc(C3CCOCC3)n2)cc1OCCCN1CCCC1` [Compound 870], the IC50 was greater than 10000 nM.

As to `CNc1cc(C)nc(Nc2ccc(OC)c(C(=O)NCc3ccccc3)c2)n1` [Compound 871], the IC50 is greater than 10000 nM. For the compound `CNc1cc(C)nc(Nc2ccc(OC)c(C(=O)NC3CCN(C)CC3)c2)n1` [Compound 873], the 50% inhibitory concentration (IC50) was greater than 10000 nM.

Turning to `CNc1cc(C)nc(Nc2ccc(CNC(=O)c3ccccc3)c(OC)c2)n1` [Compound 876], the half-inhibitory concentration (IC50) was greater than 10000 nM. As to `CNc1cc(C)nc(Nc2ccc(C(=O)NCc3ccccc3)c(OC)c2)n1` [Compound 877], the IC50 is greater than 10000 nM. As for `CNc1cc(C)nc(Nc2cnc(OC)c(OC[C@@H](O)CN3CCCC3)c2)n1` [Compound 881], the IC50 was in the range of 100 to 1000 nM.

Turning to `CNc1cc(C)nc(Nc2cnc(OC)c(OC[C@H](O)CN3CCCC3)c2)n1` [Compound 882], the 50% inhibitory concentration (IC50) was 100 to 1000 nM.

As to `COc1ncc(Nc2nc(C)cc(NCC3COC3)n2)cc1OC[C@@H](O)CN1CCCC1` [Compound 883], the IC50 is greater than 10000 nM. Turning to `COc1ncc(Nc2nc(C)cc(NCC3COC3)n2)cc1OC[C@H](O)CN1CCCC1` [Compound 884], the IC50 is greater than 10000 nM. As for `CNc1cc(C)nc(Nc2cc(OC[C@@H](O)CN3CCCC3)c(OC)cn2)n1` [Compound 885], the concentration for half-maximal inhibition (IC50) lay within 1000 to 10000 nM. In the case of `CNc1cc(C)nc(Nc2cc(OC[C@H](O)CN3CCCC3)c(OC)cn2)n1` [Compound 886], the half-maximal inhibitory concentration (IC50) was 1000 to 10000 nM. As to `CNC(=O)CCNc1cc(C)nc(Nc2cnc(OC)c(OCCCN3CCCC3)c2)n1` [Compound 887], the IC50 was in the range of 100 to 1000 nM. For the compound `CNC(=O)N1CC(CNc2cc(C)nc(Nc3cnc(OC)c(OCCCN4CCCC4)c3)n2)C1` [Compound 888], the IC50 lay within 100 to 1000 nM. Take `CNc1cc(C)nc(Nc2ccc(OC)c(OCCCc3nc(Cl)c[nH]3)c2)n1` [Compound 890]: the concentration for half-maximal inhibition (IC50) is greater than 10000 nM. As to `CNc1cc(C)nc(Nc2ccc(OC)c(OCCCc3nc(Cl)cn3C)c2)n1` [Compound 891], the 50% inhibitory concentration (IC50) was greater than 10000 nM. For `CNS(=O)(=O)CCNc1cc(C)nc(Nc2ccc(OC)c(OCCCN3CCCC3)c2)n1` [Compound 892], the IC50 was less than 100 nM.

With `COc1ccc(Nc2nc(C)cc(NCCS(=O)(=O)N(C)C)n2)cc1OCCCN1CCCC1` [Compound 893], the IC50 is less than 100 nM.

`COc1cnc(Nc2cc(NCC3COC3)cnn2)cc1OCCCN1CCCC1` [Compound 894]: the IC50 was 100 to 1000 nM. As to `COc1cc2cc(C#N)c(C)nc2cc1OCCCN1CCCC1` [Compound 895], the IC50 is greater than 10000 nM. Consider `COc1cc2cc(F)c(C)nc2cc1OCCCN1CCCC1` [Compound 896], for which the half-maximal inhibitory concentration (IC50) is greater than 10000 nM. Regarding `CNc1nc2cc(OCCCN3CCCC3)c(OC)cc2cc1F` [Compound 897], the concentration for half-maximal inhibition (IC50) fell in the range of 1000 to 10000 nM. For `CNC(=O)C1CCN(c2cc3nc(NC)cc(C)c3cc2OC)C1` (stereo not drawn) [Compound 900], the IC50 is greater than 10000 nM. On to `CNc1cc(C2CCOCC2)c2cc(OC)c(OCCCN3CC(O)C3)cc2n1` [Compound 902], for which the IC50 was less than 100 nM.

Consider `CNc1nc2cc(OCCCN3CCCC3)c(OC)cc2cc1Cl` [Compound 903], for which the concentration for half-maximal inhibition (IC50) lay in the range of 100 to 1000 nM. The same measure for `CNc1cc(C)nc(Nc2ccc(OC)c(C#CCN3CCOCC3)c2)n1` [Compound 904]: 1000 to 10000 nM; for `CNc1cc(C)nc(Nc2ccc(OC)c(OC[C@@H](O)CN3CCCC3)c2)n1` [Compound 905]: 100 to 1000 nM. On to `CNc1ccnc(Nc2ccc(OC)c(OC[C@@H](O)CN3CCC3)c2)n1` [Compound 907], for which the concentration for half-maximal inhibition (IC50) lay in the range of 100 to 1000 nM. Take `CNc1ccnc(Nc2ccc(OC)c(OC[C@H](O)CN3CCC3)c2)n1` [Compound 908]: the concentration for half-maximal inhibition (IC50) was less than 100 nM.

For the compound `CNc1ccnc(Nc2cnc(OC)c(OC[C@@H]3CCN(C)C3)c2)n1` [Compound 912], the IC50 was less than 100 nM.

Take `CNc1ccnc(Nc2cnc(OC)c(OCCCN3CCC3)c2)n1` [Compound 914]: the IC50 was less than 100 nM. In the case of `CNCCCOc1cc(Nc2nccc(NC)n2)ccc1OC` [Compound 916] it was less than 100 nM; in that of `CNCCCOc1cc(Nc2nccc(NC)n2)cnc1OC` [Compound 917], 100 to 1000 nM; in that of `CNC[C@@H](O)COc1cc(Nc2nccc(NC)n2)cnc1OC` [Compound 918], 100 to 1000 nM. Regarding `CNc1ccnc(Nc2ccc(OC)c(OC[C@@H](CN3CCCC3)OC)c2)n1` [Compound 919], the IC50 lay within 1000 to 10000 nM. Regarding `CNc1ccnc(Nc2ccc(OC)c(OC[C@H](CN3CCCC3)OC)c2)n1` [Compound 920], the half-maximal inhibitory concentration (IC50) lay in the range of 100 to 1000 nM. As to `CNC[C@H](COc1cc(Nc2nccc(NC)n2)ccc1OC)OC` [Compound 921], the half-maximal inhibitory concentration (IC50) is greater than 10000 nM. `CNC[C@@H](COc1cc(Nc2nccc(NC)n2)ccc1OC)OC` [Compound 922]: the concentration for half-maximal inhibition (IC50) was in the range of 1000 to 10000 nM. On to `CCN1CC[C@@H](COc2cc(Nc3nccc(NC)n3)ccc2OC)C1` [Compound 927], for which the IC50 was less than 100 nM. Regarding `CNc1ccnc(Nc2ccc(OC)c(OC[C@@H]3CCN(C4CC4)C3)c2)n1` [Compound 928], the 50% inhibitory concentration (IC50) was less than 100 nM. In the case of `CNc1ccnc(Nc2ccc(OC)c(OC[C@H]3CN(C)CCO3)c2)n1` [Compound 931] it was greater than 10000 nM; in that of `CCN1CCO[C@@H](COc2cc(Nc3nccc(NC)n3)ccc2OC)C1` [Compound 932], 1000 to 10000 nM.

For `CNc1ccnc(Nc2ccc(OC)c(OC[C@H]3CNCCO3)c2)n1` [Compound 933], the IC50 lay in the range of 1000 to 10000 nM.

On to `CNc1ccnc(Nc2ccc(OC)c(OC[C@@H]3CN(C)CCO3)c2)n1` [Compound 936], for which the IC50 is greater than 10000 nM. For `CCN1CCO[C@H](COc2cc(Nc3nccc(NC)n3)ccc2OC)C1` [Compound 937], the half-inhibitory concentration (IC50) was greater than 10000 nM. As to `CNc1ccnc(Nc2ccc(OC)c(OC[C@@H]3CNCCO3)c2)n1` [Compound 938], the IC50 is greater than 10000 nM. `CNc1ccnc(Nc2ccc(OC)c(OC[C@@H](C)CN3CCC3)c2)n1` [Compound 943]: the IC50 lay within 1000 to 10000 nM. The same measure for `CNc1ccnc(Nc2ccc(OC)c(OC[C@H](C)CN3CCC3)c2)n1` [Compound 945]: less than 100 nM; for `CCN1CC[C@@H](COc2cc(Nc3nc(C)cc4[nH]ncc34)ncc2OC)C1` [Compound 947]: less than 100 nM; for `CNc1cc(C)nc(Nc2cnc(OC)c(OCCCN3CCC3)c2)n1` [Compound 949]: less than 100 nM. Regarding `COc1cc2c(C3CCN(C)CC3)nc(N3CCCC3)nc2cc1OCCCN1CC(O)C1` [Compound 950], the half-maximal inhibitory concentration (IC50) fell in the range of 100 to 1000 nM. Regarding `CCN1CC(COc2cc3nc(NC)nc(C4CCN(C)CC4)c3cc2OC)C1` [Compound 951], the IC50 was less than 100 nM.

In general, IC50 refers to the point on the concentration scale where inhibition reaches its midpoint.
